Reference: patent US7737173B2, “Indole-3-carboxylic acid amide, ester, thioamide and thiol ester compounds bearing aryl or heteroaryl groups having sphingosine-1-phosphate (S1P) receptor antagonist biological activity” (Allergan, Inc., priority 2006, dated 2010)
pIC50: −log10 of the molar value. Like-named read-outs stand apart in the source and are kept apart here.

Experiments:
human S1P3 receptor = biological target: T1, human S1P3 receptor (Homo sapiens, UniProt Q99500); test: FLIPR Ca+2 assay: ability to activate or block activation of the human S1P3 receptor in T24 cells; type: cell-based
T1 construct: expressed in transfected cells
Description: Compounds were assessed for their ability to activate or block activation of the human S1P3 receptor in T24 cells stably expressing the human S1P3 receptor. Ten thousand cells/well were plated into 384-well poly-D-lysine coated plates one day prior to use. The growth media for the S1P3 receptor expressing cell line was McCoy's 5A medium supplemented with 10% charcoal-treated fetal bovine serum (FBS), 1% antibiotic-antimycotic and 400 μg/ml geneticin. On the day of the experiment, the cells were washed twice with Hank's Balanced Salt Solution supplemented with 20 mM HEPES (HBSS/Hepes buffer). The cells were then dye loaded with 2 uM Fluo-4 diluted in the HBSS/Hepes buffer with 1.25 mM Probenecid and incubated at 37° C. for 40 minutes. Extracellular dye was removed by washing the cell plates four times prior to placing the plates in the FLIPR (Fluorometric Imaging Plate Reader, Molecular Devices). Ligands were diluted in HBSS/Hepes buffer and prepared in 384-well microplates. The positive control, Sphingosine-1-Phosphate (SIP), was diluted in HBSS/Hepes buffer with 4 mg/ml fatty acid free bovine serum albumin. The FLIPR transferred 12.5 μl from the ligand microplate to the cell plate and took fluorescent measurements for 75 seconds, taking readings every second, and then for 2.5 minutes, taking readings every 10 seconds. Drugs were tested over the concentration range of 0.61 nM to 10,000 nM. Data for Ca^+2 responses were obtained in arbitrary fluorescence units and not translated into Ca^+2 concentrations. IC50 values were determined through a […] analysis using the Levenburg Marquardt algorithm.

perfused porcine eyes = details: by altering paracellular permeability, IOVS 45, 2263, 2004; cited from earlier work
[1] = T24 cells stably expressing human S1P3, antagonist activity, tested 0.61 nM to 10,000 nM, read-out: S1P3 IC50
[2] = T-24, T24 cells stably expressing human S1P3, antagonist activity, value in parentheses, read-out: S1P3 (% eff.)

T1 sequence (Q99500 whole entry): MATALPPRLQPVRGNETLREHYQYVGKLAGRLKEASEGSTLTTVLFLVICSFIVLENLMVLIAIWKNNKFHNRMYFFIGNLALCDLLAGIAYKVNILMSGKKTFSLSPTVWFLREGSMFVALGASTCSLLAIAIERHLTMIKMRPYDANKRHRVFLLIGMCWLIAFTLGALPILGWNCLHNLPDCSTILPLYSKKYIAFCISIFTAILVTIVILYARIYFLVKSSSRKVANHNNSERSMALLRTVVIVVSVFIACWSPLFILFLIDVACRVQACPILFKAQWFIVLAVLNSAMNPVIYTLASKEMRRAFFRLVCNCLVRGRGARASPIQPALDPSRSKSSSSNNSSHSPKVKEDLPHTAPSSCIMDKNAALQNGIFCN

| Compound | pIC50 (human S1P3 receptor) | Emax (human S1P3 receptor; T-24, read-out: S1P3 (% eff.)) [%] | pIC50 (human S1P3 receptor; [1]) | Emax (human S1P3 receptor; [2]) [%] | decrease of outflow facility (perfused porcine eyes) [%] |
| --- | --- | --- | --- | --- | --- |
| Cc1c(C(=O)NCc2cc(F)cc(F)c2)c2cc(O)ccc2n1Cc1ccccc1 [Compound 3, 1-Benzyl-5-hydroxy-2-methyl-1H-indole-3-carboxylic Acid, 3,5-Difluorobenzylamide] | 6.29 | 53 | – | – | – |
| Cc1c(C(=O)NCc2ccc(F)c(F)c2)c2cc(O)ccc2n1Cc1cccs1 [Compound 4, 5-Hydroxy-2-methyl-1-thiophen-2-ylmethyl-1H-indole-3-carboxylic Acid, 3,4-Difluorobenzylamide] | 5.77 | 66 | – | – | – |
| CCCCn1c(C)c(C(=O)NCc2cc(F)cc(F)c2)c2cc(O)ccc21 [Compound 6, 1-Butyl-5-hydroxy-2-methyl-1H-indole-3-carboxylic Acid, 3,5-Difluoro-benzylamide] | 5.60 | 55 | – | – | – |
| Cc1c(C(=O)NCc2ccc(F)c(F)c2)c2cc(O)ccc2n1Cc1ccco1 [Compound 9, 1-Furan-2-ylmethyl-5-hydroxy-2-methyl-1H-indole-3-carboxylic Acid, 3,4-Difluorobenzylamide] | 5.54 | 97 | – | – | – |
| Cc1c(C(=O)NCc2cc(F)cc(F)c2)c2cc(O)ccc2n1Cc1cccs1 [Compound 11, 5-Hydroxy-2-methyl-1-thiophen-2-ylmethyl-1H-indole-3-carboxylic Acid, 3,5-Difluorobenzylamide] | 5.74 | 67 | – | – | – |
| Cc1c(C(=O)NCc2cc(F)cc(F)c2)c2cc(O)ccc2n1Cc1ccco1 [Compound 12, 1-Furan-2-ylmethyl-5-hydroxy-2-methyl-1H-indole-3-carboxylic Acid 3,5-Difluorobenzylamide] | 6.02 | 77 | – | – | – |
| Cc1c(C(=O)NCc2ccc(F)c(F)c2)c2cc(O)ccc2n1Cc1ccccc1 [Compound 13, 1-Benzyl-5-hydroxy-2-methyl-1H-indole-3-carboxylic Acid, 3,4-Difluoro-benzylamide] | 5.82 | 84 | – | – | – |
| Cc1c(C(=O)NCc2cccc(F)c2)c2cc(O)ccc2n1Cc1cccs1 [Compound 14, 5-Hydroxy-2-methyl-1-thiophen-2-ylmethyl-1H-indole-3-carboxylic Acid, 3-Fluorobenzylamide] | 5.49 | 85 | – | – | – |
| Cc1c(C(=O)NCc2ccccc2)c2cc(O)ccc2n1Cc1cccs1 [Compound 15, 5-Hydroxy-2-methyl-1-thiophen-2-ylmethyl-1H-indole-3-carboxylic Acid, Benzylamide] | 5.80 | 48 | – | – | – |
| COc1cccc(CNC(=O)c2c(C)n(Cc3cccs3)c3ccc(O)cc23)c1 [Compound 17, 5-Hydroxy-2-methyl-1-thiophen-2-ylmethyl-1H-indole-3-carboxylic Acid, 3-Methoxybenzylamide] | 6.04 | 33 | – | – | – |
| CCCCn1c(C)c(C(=O)NCc2cccc(OC)c2)c2cc(O)ccc21 [Compound 18, 1-Butyl-5-hydroxy-2-methyl-1H-indole-3-carboxylic Acid, 3-Methoxy-benzylamide] | 5.29 | 42 | – | – | – |
| Cc1c(C(=O)NCc2ccc(F)cc2)c2cc(O)ccc2n1Cc1cccs1 [Compound 19, 5-Hydroxy-2-methyl-1-thiophen-2-ylmethyl-1H-indole-3-carboxylic Acid, 4-Fluorobenzylamide] | 5.57 | 72 | – | – | – |
| Cc1ccc(CNC(=O)c2c(C)n(Cc3cccs3)c3ccc(O)cc23)cc1 [Compound 20, 5-Hydroxy-2-methyl-1-thiophen-2-ylmethyl-1H-indole-3-carboxylic Acid, 4-Methylbenzylamide] | 5.60 | 71 | – | – | – |
| Cc1c(C(=O)NCc2cccc(Cl)c2)c2cc(O)ccc2n1Cc1cccs1 [Compound 21, 5-Hydroxy-2-methyl-1-thiophen-2-ylmethyl-1H-indole-3-carboxylic Acid, 3-Chlorobenzylamide] | 5.92 | 38 | – | – | – |
| Cc1c(C(=O)NCc2ccc(Cl)cc2)c2cc(O)ccc2n1Cc1cccs1 [Compound 22, 5-Hydroxy-2-methyl-1-thiophen-2-ylmethyl-1H-indole-3-carboxylic Acid, 4-Chlorobenzylamide] | 5.60 | 83 | – | – | – |
| COc1ccccc1CNC(=O)c1c(C)n(Cc2cccs2)c2ccc(O)cc12 [Compound 23, 5-Hydroxy-2-methyl-1-thiophen-2-ylmethyl-1H-indole-3-carboxylic Acid, 2-methoxybenzylamide] | 5.62 | 23 | – | – | – |
| CCc1c(C(=O)NCc2ccc(F)c(F)c2)c2cc(O)ccc2n1Cc1ccccc1 [Compound 25, 1-Benzyl-2-ethyl-5-hydroxy-1H-indole-3-carboxylic Acid, 3,4-Difluoro-benzylamide] | 6.15 | 98 | – | – | – |
| CCc1c(C(=O)NCc2cccc(OC)c2)c2cc(O)ccc2n1Cc1ccccc1 [Compound 26, 1-Benzyl-2-ethyl-5-hydroxy-1H-indole-3-carboxylic Acid, 3-Methoxy-benzylamide] | 5.72 | 97 | – | – | – |
| CC(C)c1c(C(=O)NCc2ccc(F)c(F)c2)c2cc(O)ccc2n1Cc1ccccc1 [Compound 28, 1-Benzyl-5-hydroxy-2-isopropyl-1H-indole-3-carboxylic Acid, 3,4-Difluorobenzamide] | 7.26 | 98 | – | – | – |
| Cc1c(C(=O)NCc2ccc(F)c(F)c2)c2cc(O)ccc2n1-c1ccccc1 [Compound 29, 5-Hydroxy-2-methyl-1-phenyl-1H-indole-3-carboxylic Acid 3,4-Difluoro-benzylamide] | – | – | 5.01 | 76 | – |
| Cc1c(C(=O)NCc2ccc(F)c(F)c2)c2cc(O)ccc2n1-c1ccccn1 [Compound 30, 5-Hydroxy-2-methyl-1-pyridin-2-yl-1H-indole-3-carboxylic Acid 3,4-Difluoro-benzylamide] | – | – | 5.82 | 23 | – |
| Cc1c(C(=O)NCc2ccc(F)c(F)c2)c2cc(O)ccc2n1-c1cccs1 [Compound 31, 5-Hydroxy-2-methyl-1-thiophen-2-yl-1H-indole-3-carboxylic Acid 3,4-Difluorobenzylamide] | – | – | 5.60 | 81 | – |
| CCc1c(C(=O)NCc2cc(F)cc(F)c2)c2cc(O)ccc2n1Cc1ccccc1 [Compound 32, 1-Benzyl-2-ethyl-5-hydroxy-1H-indole-3-carboxylic Acid 3,5-Difluoro-benzylamide] | 6.55 | 97 | – | – | – |
| CC(C)c1c(C(=O)NCc2cc(F)cc(F)c2)c2cc(O)ccc2n1Cc1ccccc1 [Compound 33, 1-Benzyl-5-hydroxy-2-isopropyl-1H-indole-3-carboxylic Acid, 3,5-difluorobenzylamide] | 6.96 | 99 | – | – | – |
| COc1cccc(CNC(=O)c2c(C(C)C)n(Cc3ccccc3)c3ccc(O)cc23)c1 [Compound 34, 1-Benzyl-5-hydroxy-2-isopropyl-1H-indole-3-carboxylic Acid, 3-methoxybenzylamide] | 6.39 | 98 | – | – | – |
| O=C(NCc1cc(F)cc(F)c1)c1c(-c2ccccc2)n(Cc2ccccc2)c2ccc(O)cc12 [Compound 48, 1-Benzyl-5-hydroxy-2-phenyl-1H-indole-3-carboxylic Acid, 3,5-Difluoro-benzylamide] | 6.06 | 98 | – | – | – |
| CCCCCCCCCCCCC/C=C/[C@@H](O)[C@@H](N)COP(=O)(O)O [Compound S1P, Sphingosine-1-Phosphate] | – | – | – | – | > 30 |
